33 compounds from patent US20250263408A1 (Uniquest Pty Ltd, priority 2022, published 2025) can be followed below.

One experiment concerns the target T1, Ba/F3-Syk cells (Homo sapiens, UniProt P43405).
T1 construct: fused on or other part: Possible but unprinted fusion partner: TEL (ETV6), the usual partner for Ba/F3 lines transformed by Syk; Nothing on a partner is printed
Briefly: Ba/F3 Proliferation Assay, Ba/F3-Syk cells (Resazurin). The format is cell-based. The note with it: 48-hour incubation. (The colour change of resazurin is a common sign of viable cells or microbes.)

Experiment [1] concerns Ba/F3-WT (wild type) cells. Put plainly: Ba/F3 Proliferation Assay, Ba/F3-WT (wild type) cells with mIL-3 (Resazurin). The format is cell-based. The note with it: Ba/F3-WT cells +mIL-3, 48-hour incubation.

For orientation: EC50 means the concentration that produces a half-maximal response. Read a high EC50 as lower potency in that assay. On to `CC[C@@H](C)n1cc(-c2cc3ncccc3c(OC[C@@H]3CNCCO3)n2)cn1` [Compound 6.32, 7-{1-[(2R)-butan-2-yl]-1H-pyrazol-4-yl}-5-{[(2S)-morpholin-2-yl]methoxy}-1,6-naphthyridine], for which the EC50 worked out at 0.092 µM at Ba/F3-Syk cells and 2.02 µM in experiment [1] (Mus musculus, BaF3, 48 h).

With `CC[C@@H](C)n1cc(-c2cc3ncccc3c(OC[C@@H]3CNCC(C)(C)O3)n2)cn1` [Compound 6.33, 7-{1-[(2R)-butan-2-yl]-1H-pyrazol-4-yl}-5-{[(2S)-6,6-dimethylmorpholin-2-yl]methoxy}-1,6-naphthyridine], the EC50 was found to be 0.0493 µM on Ba/F3-Syk cells and 3.76 µM in experiment [1] (Mus musculus, BaF3, 48 h).

As for `CC[C@H](C)n1cc(-c2cc3ncccc3c(OC[C@@H]3CNCCO3)n2)cn1` [Compound 6.34, 7-{1-[(2S)-butan-2-yl]-1H-pyrazol-4-yl}-5-{[(2S)-morpholin-2-yl]methoxy}-1,6-naphthyridine], the half-maximal effective concentration (EC50) at Ba/F3-Syk cells worked out at 0.0918 µM; in experiment [1] (Mus musculus, BaF3, 48 h) it was 2.08 µM.

For `CC[C@H](C)n1cc(-c2cc3ncccc3c(OC[C@@H]3CNCC(C)(C)O3)n2)cn1` [Compound 6.35, 7-{1-[(2S)-butan-2-yl]-1H-pyrazol-4-yl}-5-{[(2S)-6,6-dimethylmorpholin-2-yl]methoxy}-1,6-naphthyridine], the 50% effective concentration (EC50) turned out to be 0.0236 µM on Ba/F3-Syk cells and 2.3 µM in experiment [1] (Mus musculus, BaF3, 48 h).

As to `CC1(Cn2cc(-c3cc4ncccc4c(OC[C@@H]4CNCCO4)n3)cn2)COC1` [Compound 6.36], the half-maximal effective concentration (EC50) was 0.0816 µM at Ba/F3-Syk cells and 1.39 µM in experiment [1] (Mus musculus, BaF3, 48 h).

As to `FC1(F)CC(Cn2cc(-c3cc4ncccc4c(OC[C@@H]4CNCCO4)n3)cn2)C1` [Compound 6.37], the EC50 on Ba/F3-Syk cells turned out to be 0.0603 µM; in experiment [1] (Mus musculus, BaF3, 48 h), 0.56 µM.

Regarding `CC1(C)CNC[C@@H](COc2nc(-c3cnn(CC4CC(F)(F)C4)c3)cc3ncccc23)O1` [Compound 6.38, 7-{1-[(3,3-difluorocyclobutyl)methyl]-1H-pyrazol-4-yl}-5-{[(2S)-6,6-dimethylmorpholin-2-yl]methoxy}-1,6-naphthyridine], the EC50 at Ba/F3-Syk cells amounted to 0.0259 µM; in experiment [1] (Mus musculus, BaF3, 48 h), 0.972 µM.

For `CC(F)(F)Cn1cc(-c2cc3ncccc3c(OC[C@@H]3CNCC(C)(C)O3)n2)cn1` [Compound 6.39, 7-[1-(2,2-difluoropropyl)-1H-pyrazol-4-yl]-5-{[(2S)-6,6-dimethylmorpholin-2-yl]methoxy}-1,6-naphthyridine], the concentration giving a half-maximal response (EC50) on Ba/F3-Syk cells was 0.0214 µM; in experiment [1] (Mus musculus, BaF3, 48 h), 1.52 µM.

With `CC(F)(F)Cn1cc(-c2cc3ncccc3c(OC[C@@H]3CNCCO3)n2)cn1` [Compound 6.40, 7-[1-(2,2-difluoropropyl)-1H-pyrazol-4-yl]-5-{[(2S)-morpholin-2-yl]methoxy}-1,6-naphthyridine], the half-maximal effective concentration (EC50) at Ba/F3-Syk cells came out at 0.0598 µM; in experiment [1] (Mus musculus, BaF3, 48 h) it was 1.44 µM.

Regarding `FC1(F)CC(Cn2ccc(-c3cc4ncccc4c(OC[C@@H]4CNCCO4)n3)c2)C1` [Compound 6.42, 7-{1-[(3,3-difluorocyclobutyl)methyl]-1H-pyrrol-3-yl}-5-{[(2S)-morpholin-2-yl]methoxy}-1,6-naphthyridine], the EC50 came out at 0.0151 µM on Ba/F3-Syk cells and 0.838 µM in experiment [1] (Mus musculus, BaF3, 48 h).

In the case of `CC(F)(F)Cn1ccc(-c2cc3ncccc3c(OC[C@@H]3CNCCO3)n2)c1` [Compound 6.43, 7-[1-(2,2-difluoropropyl)-1H-pyrrol-3-yl]-5-{[(2S)-morpholin-2-yl]methoxy}-1,6-naphthyridine], the EC50 is 0.0149 µM at Ba/F3-Syk cells and more than 1 µM in experiment [1] (Mus musculus, BaF3, 48 h).

For `c1cnc2cc(-c3cnn([C@H]4CCOC4)c3)nc(OC[C@@H]3CNCCO3)c2c1` [Compound 6.44, 5-{[(2S)-morpholin-2-yl]methoxy}-7-{1-[(3S)-oxolan-3-yl]-1H-pyrazol-4-yl}-1,6-naphthyridine], the half-maximal effective concentration (EC50) at Ba/F3-Syk cells is 0.0329 µM; in experiment [1] (Mus musculus, BaF3, 48 h) it was more than 1 µM.

Consider `c1cnc2cc(-c3cnn([C@@H]4CCOC4)c3)nc(OC[C@@H]3CNCCO3)c2c1` [Compound 6.45, 5-{[(2S)-morpholin-2-yl]methoxy}-7-{1-[(3R)-oxolan-3-yl]-1H-pyrazol-4-yl}-1,6-naphthyridine], for which the concentration for a half-maximal effect (EC50) at Ba/F3-Syk cells is 0.0687 µM; in experiment [1] (Mus musculus, BaF3, 48 h), more than 1 µM.

Turning to `CC(C)n1ccc(-c2cc(OC[C@@H]3CNCCO3)c3cccnc3c2)c1` [Compound 7.1, 5-{[(2S)-morpholin-2-yl]methoxy}-7-[1-(propan-2-yl)-1H-pyrrol-3-yl]quinoline], the EC50 on Ba/F3-Syk cells was determined as 0.0479 µM; in experiment [1] (Mus musculus, BaF3, 48 h) it was 2.78 µM.

Take `c1cnc2cc(-c3ccn(C4CCC4)c3)cc(OC[C@@H]3CNCCO3)c2c1` [Compound 7.3, 7-(1-cyclobutyl-1H-pyrrol-3-yl)-5-{[(2S)-morpholin-2-yl]methoxy}quinoline]: the EC50 on Ba/F3-Syk cells amounted to 0.074 µM; in experiment [1] (Mus musculus, BaF3, 48 h), 2.88 µM.

For `CC(C)n1ccc(-c2cc(OC[C@@H]3CNCC(C)(C)O3)c3cccnc3c2)c1` [Compound 7.4, 5-{[(2S)-6,6-dimethylmorpholin-2-yl]methoxy}-7-[1-(propan-2-yl)-1H-pyrrol-3-yl]quinoline], the EC50 was 0.0297 µM at Ba/F3-Syk cells and 2.69 µM in experiment [1] (Mus musculus, BaF3, 48 h).

With `CC1(C)CNC[C@@H](COc2cc(-c3ccn(C4CCC4)c3)cc3ncccc23)O1` [Compound 7.5, 7-(1-cyclobutyl-1H-pyrrol-3-yl)-5-{[(2S)-6,6-dimethylmorpholin-2-yl]methoxy}quinoline], the EC50 amounted to 0.036 µM at Ba/F3-Syk cells and 2.1 µM in experiment [1] (Mus musculus, BaF3, 48 h).

For the compound `FC1(F)CC1n1ccc(-c2cc(OC[C@@H]3CNCCO3)c3cccnc3c2)c1` (stereo partly drawn) [Compound 7.7, 7-[1-(2,2-difluorocyclopropyl)-1H-pyrrol-3-yl]-5-{[(2S)-morpholin-2-yl]methoxy}quinoline], the half-maximal effective concentration (EC50) stood at 0.0865 µM at Ba/F3-Syk cells and 4.33 µM in experiment [1] (Mus musculus, BaF3, 48 h).

Take `CC1(C)CNC[C@@H](COc2cc(-c3ccn(C4CC4(F)F)c3)cc3ncccc23)O1` (stereo partly drawn) [Compound 7.8, 7-[1-(2,2-difluorocyclopropyl)-1H-pyrrol-3-yl]-5-{[(2S)-6,6-dimethylmorpholin-2-yl]methoxy}quinoline]: the EC50 at Ba/F3-Syk cells was determined as 0.0193 µM; in experiment [1] (Mus musculus, BaF3, 48 h), 3.27 µM.

Consider `COCCn1ccc(-c2cc(OC[C@@H]3CNCCO3)c3cccnc3c2)c1` [Compound 7.9, 7-[1-(2-methoxyethyl)-1H-pyrrol-3-yl]-5-{[(2S)-morpholin-2-yl]methoxy}quinoline], for which the concentration for a half-maximal effect (EC50) at Ba/F3-Syk cells came to 0.234 µM; in experiment [1] (Mus musculus, BaF3, 48 h) it was 2.44 µM.

For `CC(C)n1ccc(-c2cc(OC[C@@H]3CNCC4(CC4)O3)c3cccnc3c2)c1` [Compound 7.13, 5-{[(5S)-4-oxa-7-azaspiro[2.5]octan-5-yl]methoxy}-7-[1-(propan-2-yl)-1H-pyrrol-3-yl]quinoline], the concentration giving a half-maximal response (EC50) came to 0.0224 µM on Ba/F3-Syk cells and 4.01 µM in experiment [1] (Mus musculus, BaF3, 48 h).

Take `FC(F)Cn1cc(-c2cc(OC[C@@H]3CNCCCO3)c3cccnc3c2)cn1` [Compound 7.15, 7-[1-(2,2-difluoroethyl)-1H-pyrazol-4-yl]-5-{[(2S)-1,4-oxazepan-2-yl]methoxy}quinoline]: the 50% effective concentration (EC50) turned out to be 0.0975 µM at Ba/F3-Syk cells and 2.77 µM in experiment [1] (Mus musculus, BaF3, 48 h).

Take `c1cnc2cc(-c3ccn(C4COC4)c3)cc(OC[C@@H]3CNCC4(CC4)O3)c2c1` [Compound 7.16, 5-{[(5S)-4-oxa-7-azaspiro[2.5]octan-5-yl]methoxy}-7-[1-(oxetan-3-yl)-1H-pyrrol-3-yl]quinoline]: the half-maximal effective concentration (EC50) was found to be 0.0198 µM at Ba/F3-Syk cells and 1.71 µM in experiment [1] (Mus musculus, BaF3, 48 h).

Turning to `CCn1ccc(-c2cc(OC[C@@H]3CNCC(C)(C)O3)c3cccnc3c2)c1` [Compound 7.17, 5-{[(2S)-6,6-dimethylmorpholin-2-yl]methoxy}-7-(1-ethyl-1H-pyrrol-3-yl)quinoline], the EC50 at Ba/F3-Syk cells was determined as 0.0158 µM; in experiment [1] (Mus musculus, BaF3, 48 h) it was 1.97 µM.

With `CCn1ccc(-c2cc(O[C@H](C)[C@@H]3CNCCO3)c3cccnc3c2)c1` [Compound 7.18, 7-(1-ethyl-1H-pyrrol-3-yl)-5-[(1R)-1-[(2S)-morpholin-2-yl]ethoxy]quinoline], the EC50 on Ba/F3-Syk cells turned out to be 0.0537 µM; in experiment [1] (Mus musculus, BaF3, 48 h), 1.75 µM.

Take `CC(C)n1ccc(-c2cc(O[C@H](C)[C@@H]3CNCCO3)c3cccnc3c2)c1` [Compound 7.19, 5-[(1R)-1-[(2S)-morpholin-2-yl]ethoxy]-7-[1-(propan-2-yl)-1H-pyrrol-3-yl]quinoline]: the EC50 amounted to 0.0363 µM on Ba/F3-Syk cells and 1.87 µM in experiment [1] (Mus musculus, BaF3, 48 h).

Take `CCn1ccc(-c2cc(OC[C@@H]3CNCCO3)c3cccnc3c2)c1` [Compound 7.20, 7-(1-ethyl-1H-pyrrol-3-yl)-5-{[(2S)-morpholin-2-yl]methoxy}quinoline]: the EC50 at Ba/F3-Syk cells was found to be 0.04 µM; in experiment [1] (Mus musculus, BaF3, 48 h) it was 1.69 µM.

For the compound `COCCn1ccc(-c2cc(OC[C@@H]3CNCC4(CC4)O3)c3nccnc3c2)c1` [Compound 8.1, 7-[1-(2-methoxyethyl)-1H-pyrrol-3-yl]-5-{[(5S)-4-oxa-7-azaspiro[2.5]octan-5-yl]methoxy}quinoxaline], the EC50 on Ba/F3-Syk cells turned out to be 0.0293 µM; in experiment [1] (Mus musculus, BaF3, 48 h) it was 1.85 µM.

Consider `CC(C)n1ccc(-c2cc(OC[C@@H]3CNCC4(CC4)O3)c3nccnc3c2)c1` [Compound 8.2, 5-{[(5S)-4-oxa-7-azaspiro[2.5]octan-5-yl]methoxy}-7-[1-(propan-2-yl)-1H-pyrrol-3-yl]quinoxaline], for which the EC50 at Ba/F3-Syk cells turned out to be 0.0221 µM; in experiment [1] (Mus musculus, BaF3, 48 h) it was 0.614 µM.

On to `COCCn1ccc(-c2cc(OC[C@@H]3CNCCO3)c3nccnc3c2)c1` [Compound 8.7], for which the EC50 at Ba/F3-Syk cells came to 0.0151 µM; in experiment [1], 0.621 µM.

In the case of `CCn1ccc(-c2cc(OC[C@@H]3CNCCCO3)c3nccnc3c2)c1` [Compound 8.9, 7-(1-ethyl-1H-pyrrol-3-yl)-5-{[(2S)-1,4-oxazepan-2-yl]methoxy}quinoxaline], the EC50 was 0.0205 µM at Ba/F3-Syk cells and 1.62 µM in experiment [1] (Mus musculus, BaF3, 48 h).

In the case of `CC(C)n1ccc(-c2cc(O[C@H](C)[C@@H]3CNCC(C)(C)O3)c3nccnc3c2)c1` [Compound 8.11, 5-[(1R)-1-[(2S)-6,6-dimethylmorpholin-2-yl]ethoxy]-7-[1-(propan-2-yl)-1H-pyrrol-3-yl]quinoxaline], the EC50 came to 0.00632 µM at Ba/F3-Syk cells and 0.625 µM in experiment [1] (Mus musculus, BaF3, 48 h).

With `CCn1ccc(-c2cc(O[C@H](C)[C@@H]3CNCC(C)(C)O3)c3nccnc3c2)c1` [Compound 8.12, 5-[(1R)-1-[(2S)-6,6-dimethylmorpholin-2-yl]ethoxy]-7-(1-ethyl-1H-pyrrol-3-yl)quinoxaline], the 50% effective concentration (EC50) came out at 0.0078 µM on Ba/F3-Syk cells and 0.537 µM in experiment [1] (Mus musculus, BaF3, 48 h).
